Laboratory results as given in ChEMBL document CHEMBL6092215, “A Prostate-Specific Membrane Antigen-Targeting Small Molecule-Drug Conjugate Strategy to Overcome the Hematological Toxicity of Olaparib” (J Med Chem, 2024).

Assays:
[1] = Drug uptake in PSMA positive human 22Rv1 cells at 10 uM measured after 1 to 6 hrs in presence of PSMA ligand DUPA by LC-MS/MS analysis; type: ADME, cell-based; details: cwr22r, time 1-6 hrs
[2] = Toxicity in male BALB/c nude mouse xenografted with human 22Rv1 cells assessed as decrease in WBC at 25 to 100 mg/kg administered via gavage by routine blood test; type: organism-based; details: in vivo, po, dose 25-100 mg/kg
[3] = system: CWR22R; assay: Induction of DNA damage in human 22Rv1 cells assessed as increase in number of gamma-H2AX foci incubated for 12 hrs by DAPI staining based immunofluorescence analysis; type: functional, cell-based; details: dose 50-200 µM
[4] = Half-life in Sprague-Dawley rat at 100 mg/kg, po measured after 24 hrs by UPLC-MS/MS analysis; type: ADME, organism-based; details: in vivo
[5] = Volume of distribution in Sprague-Dawley rat at 5 mg/kg, iv measured after 24 hrs by UPLC-MS/MS analysis; type: ADME, organism-based; details: in vivo
[6] = system: CWR22R; assay: Antitumor activity against human 22Rv1 cells xenografted in male BALB/c nude mouse administered via gavage; type: functional, cell-based; details: dose 195-390 mg/kg
[7] = Subacute toxicity in male ICR mouse assessed as decrease in red blood cells at 195 to 390 mg/kg, po administered via gavage for 30 days by blood routine test; type: organism-based; details: in vivo, 720 h, dose 195-390 mg/kg, time 30 day
[8] = Toxicity in male BALB/c nude mouse xenografted with human 22Rv1 cells assessed as decrease in neutrophils at 25 to 100 mg/kg administered via gavage by routine blood test; type: organism-based; details: in vivo, po, dose 25-100 mg/kg
[9] = Subacute toxicity in male ICR mouse assessed as decrease in WBC at 195 to 390 mg/kg, po administered via gavage for 30 days by blood routine test; type: organism-based; details: in vivo, 720 h, dose 195-390 mg/kg, time 30 day
[10] = Cmax in Sprague-Dawley rat at 100 mg/kg, po measured after 24 hrs by UPLC-MS/MS analysis; type: ADME, organism-based; details: in vivo
[11] = Subacute toxicity in male ICR mouse assessed as decrease in neutrophil at 195 to 390 mg/kg, po administered via gavage for 30 days by blood routine test; type: organism-based; details: in vivo, 720 h, dose 195-390 mg/kg, time 30 day
[12] = system: PC-3; assay: Antiproliferative activity against PSMA negative human PC-3 cells assessed as effect on cell viability incubated for 72 hrs by MTT assay; type: functional
[13] = AUC (0 to infinity) in Sprague-Dawley rat at 100 mg/kg, po measured after 24 hrs by UPLC-MS/MS analysis; type: ADME, organism-based; details: in vivo
[14] = Subacute toxicity in male ICR mouse assessed as decrease in hemoglobin at 195 to 390 mg/kg, po administered via gavage for 30 days by blood routine test; type: organism-based; details: in vivo, 720 h, dose 195-390 mg/kg, time 30 day
[15] = system: CWR22R; assay: Antitumor activity against human 22Rv1 cells xenografted in male BALB/c nude mouse assessed as tumor growth inhibition at 25 mg/kg administered via gavage relative to control; type: functional; details: 22Rv1, po, read-out: TGI
[16] = Subacute toxicity in male ICR mouse assessed as decrease in lymphocytes at 195 to 390 mg/kg, po administered via gavage for 30 days by blood routine test; type: organism-based; details: in vivo, 720 h, dose 195-390 mg/kg, time 30 day
[17] = Toxicity in male BALB/c nude mouse xenografted with human 22Rv1 cells assessed as decrease in body weight at 25 to 100 mg/kg administered via gavage; type: organism-based; details: in vivo, po, dose 25-100 mg/kg
[18] = Toxicity in male BALB/c nude mouse xenografted with human 22Rv1 cells assessed as decrease in RBC at 25 to 100 mg/kg administered via gavage by routine blood test; type: organism-based; details: in vivo, po, dose 25-100 mg/kg
[19] = system: LNCaP; assay: Antiproliferative activity against human LNCaP cells with high PSMA expression assessed as effect on cell viability incubated for 72 hrs by MTT assay; type: functional, cell-based
[20] = Half-life in Sprague-Dawley rat at 5 mg/kg, iv measured after 24 hrs by UPLC-MS/MS analysis; type: ADME, organism-based; details: in vivo
[21] = C0 in Sprague-Dawley rat at 5 mg/kg, iv measured after 24 hrs by UPLC-MS/MS analysis; type: ADME, organism-based; details: in vivo
[22] = system: CWR22R; assay: Antitumor activity against human 22Rv1 cells xenografted in male BALB/c nude mouse assessed as tumor growth inhibition at 195 to 390 mg/kg administered via gavage relative to control; type: functional; details: dose 195-390 mg/kg
[23] = Tmax in Sprague-Dawley rat at 100 mg/kg, po measured after 24 hrs by UPLC-MS/MS analysis; type: ADME, organism-based; details: in vivo
[24] = Drug uptake in PSMA positive human 22Rv1 cells at 10 uM measured after 1 to 6 hrs by LC-MS/MS analysis; type: ADME, cell-based; details: cwr22r, time 1-6 hrs
[25] = system: CWR22R; assay: Antitumor activity against human 22Rv1 cells xenografted in male BALB/c nude mouse assessed as tumor growth inhibition at 50 mg/kg administered via gavage relative to control; type: functional; details: 22Rv1, po, read-out: TGI
[26] = system: CWR22R; assay: Induction of apoptosis in human 22Rv1 cells assessed as increase in cleaved caspase-3 expression at 100 uM incubated for 72 hrs by Western blot analysis; type: functional, cell-based
[27] = AUC (0 to infinity) in Sprague-Dawley rat at 5 mg/kg, iv measured after 24 hrs by UPLC-MS/MS analysis; type: ADME, organism-based; details: in vivo
[28] = Oral bioavailability in Sprague-Dawley rat at 100 mg/kg measured after 24 hrs by UPLC-MS/MS analysis; type: ADME, organism-based; details: in vivo
[29] = system: CWR22R; assay: Antiproliferative activity against human 22Rv1 cells assessed as reduction in cell viability at 125 uM in presence of DUPA; type: functional, cell-based
[30] = Antiproliferative activity against PSMA negative human RWPE-1 cells assessed as effect on cell viability incubated for 72 hrs by MTT assay; type: toxicity, cell-based; details: RWPE-1 cells (PSMA negative)
[31] = AUC (0 to t) in Sprague-Dawley rat at 100 mg/kg, po measured after 24 hrs by UPLC-MS/MS analysis; type: ADME, organism-based; details: in vivo
[32] = Subacute toxicity in male ICR mouse assessed as decrease in hematocrit at 195 to 390 mg/kg, po administered via gavage for 30 days by blood routine test; type: organism-based; details: in vivo, 720 h, dose 195-390 mg/kg, time 30 day
[33] = system: CWR22R; assay: Antitumor activity against human 22Rv1 cells xenografted in male BALB/c nude mouse assessed as tumor growth inhibition at 100 mg/kg administered via gavage relative to control; type: functional; details: 22Rv1, po, read-out: TGI
[34] = AUC (0 to t) in Sprague-Dawley rat at 5 mg/kg, iv measured after 24 hrs by UPLC-MS/MS analysis; type: ADME, organism-based; details: in vivo
[35] = system: CWR22R; assay: Antiproliferative activity against human 22Rv1 cells with high PSMA expression assessed as effect on cell viability incubated for 72 hrs by MTT assay; type: functional, cell-based; details: 22Rv1, 72 h
[36] = Toxicity in male BALB/c nude mouse xenografted with human 22Rv1 cells assessed as decrease in lymphocytes at 25 to 100 mg/kg administered via gavage by routine blood test; type: organism-based; details: in vivo, po, dose 25-100 mg/kg
[37] = Clearance in Sprague-Dawley rat at 5 mg/kg, iv measured after 24 hrs by UPLC-MS/MS analysis; type: ADME, organism-based; details: in vivo
[38] = Subacute toxicity in male ICR mouse assessed as decrease in body weight at 195 to 390 mg/kg, po administered via gavage for 30 days; type: organism-based; details: in vivo, 720 h, dose 195-390 mg/kg, time 30 day
[39] = Toxicity in male BALB/c nude mouse xenografted with human 22Rv1 cells assessed as decrease in body weight at 195 to 390 mg/kg administered via gavage; type: organism-based; details: in vivo, po, dose 195-390 mg/kg
[40] = target: Poly [ADP-ribose] polymerase 1 (Homo sapiens, UniProt P09874); assay: Inhibition of PARP1 (unknown origin) by biotinylated NAD+-based luminescence assay
Chain of Poly [ADP-ribose] polymerase 1 (P09874 whole entry): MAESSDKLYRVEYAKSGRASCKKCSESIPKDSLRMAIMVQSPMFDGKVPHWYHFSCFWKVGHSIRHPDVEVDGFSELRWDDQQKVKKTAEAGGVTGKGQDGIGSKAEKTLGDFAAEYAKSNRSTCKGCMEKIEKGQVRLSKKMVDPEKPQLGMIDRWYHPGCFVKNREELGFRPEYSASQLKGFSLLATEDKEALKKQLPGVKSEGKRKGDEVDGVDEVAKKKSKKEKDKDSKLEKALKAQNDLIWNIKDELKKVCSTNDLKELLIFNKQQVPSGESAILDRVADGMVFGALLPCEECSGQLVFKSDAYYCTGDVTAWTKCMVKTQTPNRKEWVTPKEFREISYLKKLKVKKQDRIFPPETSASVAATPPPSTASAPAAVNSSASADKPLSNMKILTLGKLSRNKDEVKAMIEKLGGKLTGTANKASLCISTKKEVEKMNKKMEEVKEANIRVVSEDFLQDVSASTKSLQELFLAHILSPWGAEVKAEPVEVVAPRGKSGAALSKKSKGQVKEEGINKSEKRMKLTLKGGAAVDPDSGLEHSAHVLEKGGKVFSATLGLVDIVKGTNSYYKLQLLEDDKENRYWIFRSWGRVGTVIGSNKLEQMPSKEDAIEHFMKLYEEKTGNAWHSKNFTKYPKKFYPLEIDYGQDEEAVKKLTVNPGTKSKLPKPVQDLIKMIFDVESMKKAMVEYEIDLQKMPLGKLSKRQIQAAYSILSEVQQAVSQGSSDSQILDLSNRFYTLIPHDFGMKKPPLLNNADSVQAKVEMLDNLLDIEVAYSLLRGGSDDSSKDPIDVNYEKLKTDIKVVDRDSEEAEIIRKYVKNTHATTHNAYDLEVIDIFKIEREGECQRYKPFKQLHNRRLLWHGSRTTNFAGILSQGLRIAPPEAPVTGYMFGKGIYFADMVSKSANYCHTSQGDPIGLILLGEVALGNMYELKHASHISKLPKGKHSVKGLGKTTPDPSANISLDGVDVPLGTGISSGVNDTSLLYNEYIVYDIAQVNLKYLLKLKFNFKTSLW

## O=C(O)CC[C@H](NC(=O)N[C@@H](CCCCNC(=O)CCC(=O)NC1(C(=O)N2CCN(C(=O)c3cc(Cc4n[nH]c(=O)c5ccccc45)ccc3F)CC2)CC1)C(=O)O)C(=O)O
[1]
  Drug uptake: Not_active
[2]
  Activity: Non-toxic
[3]
  Activity: Dose-dependent-effect
[4]
  half-life: 1.02 h
[5]
  Vd: 0.383 L/kg
[6]
  Activity: Dose-dependent-effect
[7]
  Activity: Non-toxic
[8]
  Activity: Non-toxic
[9]
  Activity: Non-toxic
[10]
  Cmax: 7310 ng/mL
[11]
  Activity: Non-toxic
[12]
  CC50: > 1000 µM
[13]
  AUC(0-inf): 27800 ng·h/mL
[14]
  Activity: Non-toxic
[15]
  inhibition in vivo at 25 mg/kg: 52%
[16]
  Activity: Non-toxic
[17]
  Activity: Non-toxic
[18]
  Activity: Non-toxic
[19]
  IC50: 80.6 µM
[20]
  half-life: 0.362 h
[21]
  C0 at 24 h: 13500 ng/mL
[22]
  TGI: 73%
[23]
  Tmax: 1 h
[24]
  Drug uptake: Active
[25]
  inhibition in vivo at 50 mg/kg: 65%
[26]
  Activity: Active; Similar To Olaparib-Treated Group
[27]
  AUC(0-inf): 7460 ng·h/mL
[28]
  bioavailability: 18.6%
[29]
  Activity: Not active; Drug Mode Of Action Appears To Be Via Binding To Psma Receptor
[30]
  CC50 at 72 h: > 1000 µM
[31]
  AUC(0-t) at 24 h: 27400 ng·h/mL
[32]
  Activity: Non-toxic
[33]
  inhibition in vivo at 100 mg/kg: 70%
[34]
  AUC(0-t) at 24 h: 7310 ng·h/mL
[35]
  IC50: 84.5 µM
[36]
  Activity: Non-toxic
[37]
  clearance: 12.2 mL/min/kg
[38]
  Activity: Non-toxic
[39]
  Activity: Non-toxic
[40]
  IC50: 0.001 µM
